Measured values reported in paper PMC7217030 (Journal of medicinal chemistry, 2018).

What was measured:
[1] = target: T1, thyroid hormone receptor (TRβ) LBD fused to GAL4 DBD (Homo sapiens, UniProt P10828); experiment: GeneBLAzer nuclear hormone receptor specificity assay, agonist mode, TRβ; assay type: cell-based; conditions: 0.25 to 25 μM
T1 sequence (P10828 217-461 limits assumed): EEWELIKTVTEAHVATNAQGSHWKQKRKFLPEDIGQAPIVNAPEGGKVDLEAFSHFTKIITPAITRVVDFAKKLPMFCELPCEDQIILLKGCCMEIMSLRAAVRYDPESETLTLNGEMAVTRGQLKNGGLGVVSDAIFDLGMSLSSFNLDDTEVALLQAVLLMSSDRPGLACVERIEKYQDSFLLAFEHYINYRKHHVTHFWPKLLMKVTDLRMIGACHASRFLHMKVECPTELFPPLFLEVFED

[2] = target: T2, vitamin D receptor (VDR) LBD fused to GAL4 DBD (Homo sapiens, UniProt P11473); experiment: GeneBLAzer nuclear hormone receptor specificity assay, agonist mode, VDR; assay type: cell-based; conditions: 0.25 to 25 μM
T2 sequence (P11473 127-423 limits assumed): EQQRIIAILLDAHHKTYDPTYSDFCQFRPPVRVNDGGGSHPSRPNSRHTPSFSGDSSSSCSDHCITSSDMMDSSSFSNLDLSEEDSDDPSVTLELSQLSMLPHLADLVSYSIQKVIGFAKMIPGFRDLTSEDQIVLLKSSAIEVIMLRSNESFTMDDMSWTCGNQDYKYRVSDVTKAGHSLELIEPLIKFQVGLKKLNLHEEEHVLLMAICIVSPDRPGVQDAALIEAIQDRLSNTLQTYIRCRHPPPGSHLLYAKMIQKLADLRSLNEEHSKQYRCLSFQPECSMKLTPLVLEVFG

[3] = target: T3, glucocorticoid receptor (GR) LBD fused to GAL4 DBD (Homo sapiens, UniProt P04150); experiment: GeneBLAzer nuclear hormone receptor specificity assay, agonist mode, GR; assay type: cell-based; conditions: 0.25 to 25 μM
T3 sequence (P04150 524-758 limits assumed): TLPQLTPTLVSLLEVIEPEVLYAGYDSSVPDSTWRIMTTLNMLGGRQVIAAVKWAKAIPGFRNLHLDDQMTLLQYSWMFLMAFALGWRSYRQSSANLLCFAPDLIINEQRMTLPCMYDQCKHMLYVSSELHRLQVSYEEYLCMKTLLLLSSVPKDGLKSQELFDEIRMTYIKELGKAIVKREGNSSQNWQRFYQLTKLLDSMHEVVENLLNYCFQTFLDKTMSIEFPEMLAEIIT

[4] = target: T4, androgen receptor (AR) LBD fused to GAL4 DBD (Homo sapiens, UniProt P10275); experiment: GeneBLAzer nuclear hormone receptor specificity assay, agonist mode, AR; assay type: cell-based; conditions: 0.25 to 25 μM
T4 sequence (P10275 669-900 limits assumed): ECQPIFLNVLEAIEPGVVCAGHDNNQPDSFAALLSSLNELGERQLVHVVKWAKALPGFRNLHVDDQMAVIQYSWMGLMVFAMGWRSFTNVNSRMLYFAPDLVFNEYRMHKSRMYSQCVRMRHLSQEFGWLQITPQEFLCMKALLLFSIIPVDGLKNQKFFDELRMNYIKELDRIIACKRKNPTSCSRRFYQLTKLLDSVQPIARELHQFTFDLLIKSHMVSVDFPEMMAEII

[5] = target: T5, mineralocorticoid receptor (MR) LBD fused to GAL4 DBD (Homo sapiens, UniProt P08235); experiment: GeneBLAzer nuclear hormone receptor specificity assay, agonist mode, MR; assay type: cell-based; conditions: 0.25 to 25 μM
T5 sequence (P08235 726-964 limits assumed): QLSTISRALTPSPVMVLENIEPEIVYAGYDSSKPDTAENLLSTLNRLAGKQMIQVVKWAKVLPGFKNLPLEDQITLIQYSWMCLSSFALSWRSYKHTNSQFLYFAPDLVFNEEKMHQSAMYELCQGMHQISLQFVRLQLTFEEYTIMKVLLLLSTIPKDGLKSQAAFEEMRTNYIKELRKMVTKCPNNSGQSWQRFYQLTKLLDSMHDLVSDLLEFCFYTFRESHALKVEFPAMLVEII

CYP1A2 = target: T6, CYP1A2 (Homo sapiens, UniProt P05177); experiment: P450-Glo cytochrome P450 inhibition, CYP1A2; assay type: in vitro ADME; conditions: highest concentration 62.5 μM
T6 sequence (P05177 1-516): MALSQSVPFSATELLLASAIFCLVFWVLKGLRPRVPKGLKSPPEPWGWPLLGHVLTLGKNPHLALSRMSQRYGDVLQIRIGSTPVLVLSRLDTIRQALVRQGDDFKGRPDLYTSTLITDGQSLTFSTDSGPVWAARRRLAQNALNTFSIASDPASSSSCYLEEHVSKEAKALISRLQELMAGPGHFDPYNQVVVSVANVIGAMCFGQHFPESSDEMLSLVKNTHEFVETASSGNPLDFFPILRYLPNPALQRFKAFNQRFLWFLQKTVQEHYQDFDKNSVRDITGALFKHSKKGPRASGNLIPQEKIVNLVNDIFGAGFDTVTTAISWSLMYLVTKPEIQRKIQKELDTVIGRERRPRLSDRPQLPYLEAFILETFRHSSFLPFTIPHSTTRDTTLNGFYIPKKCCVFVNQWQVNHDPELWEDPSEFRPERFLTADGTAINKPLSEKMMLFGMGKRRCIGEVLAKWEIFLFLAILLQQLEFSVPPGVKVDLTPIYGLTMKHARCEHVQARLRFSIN

ovariectomized mice [6] = experiment: Object placement task; conditions: for time with moved object vs chance, object placement: tested 24 h after training; for preference for moved object vs chance, object placement: within 1 month of ovariectomy
[7] = target: T7, peroxisome proliferator-activated receptor (PPARδ) LBD fused to GAL4 DBD (Homo sapiens, UniProt Q03181); experiment: GeneBLAzer nuclear hormone receptor specificity assay, agonist mode, PPARδ; assay type: cell-based; conditions: 0.25 to 25 μM
T7 sequence (Q03181 211-439 limits assumed): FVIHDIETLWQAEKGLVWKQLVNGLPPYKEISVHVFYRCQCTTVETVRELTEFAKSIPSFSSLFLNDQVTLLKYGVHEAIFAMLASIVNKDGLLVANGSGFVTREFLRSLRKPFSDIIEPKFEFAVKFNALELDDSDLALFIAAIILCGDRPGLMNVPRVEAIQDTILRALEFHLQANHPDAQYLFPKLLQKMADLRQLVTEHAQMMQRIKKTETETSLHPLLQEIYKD

ovariectomized mice [8] = experiment: Object recognition task; conditions: for preference for novel object vs chance, object recognition: IP injection
[9] = target: T8, progesterone receptor (PR) LBD fused to GAL4 DBD (Homo sapiens, UniProt P06401); experiment: GeneBLAzer nuclear hormone receptor specificity assay, agonist mode, PR; assay type: cell-based; conditions: 0.25 to 25 μM
T8 sequence (P06401 679-913 limits assumed): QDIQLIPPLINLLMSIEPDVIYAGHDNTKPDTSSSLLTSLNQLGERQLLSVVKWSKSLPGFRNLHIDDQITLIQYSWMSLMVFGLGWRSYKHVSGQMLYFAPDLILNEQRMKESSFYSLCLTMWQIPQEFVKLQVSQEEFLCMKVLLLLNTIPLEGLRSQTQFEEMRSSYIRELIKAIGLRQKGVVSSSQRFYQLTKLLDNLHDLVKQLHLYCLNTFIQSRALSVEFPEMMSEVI

CYP2D6 = CYP2D6 (Homo sapiens, UniProt P10635); experiment: P450-Glo cytochrome P450 inhibition, CYP2D6; assay type: in vitro ADME; conditions: highest concentration 62.5 μM
Sequence of CYP2D6 (P10635 whole entry, the tested form may be a part): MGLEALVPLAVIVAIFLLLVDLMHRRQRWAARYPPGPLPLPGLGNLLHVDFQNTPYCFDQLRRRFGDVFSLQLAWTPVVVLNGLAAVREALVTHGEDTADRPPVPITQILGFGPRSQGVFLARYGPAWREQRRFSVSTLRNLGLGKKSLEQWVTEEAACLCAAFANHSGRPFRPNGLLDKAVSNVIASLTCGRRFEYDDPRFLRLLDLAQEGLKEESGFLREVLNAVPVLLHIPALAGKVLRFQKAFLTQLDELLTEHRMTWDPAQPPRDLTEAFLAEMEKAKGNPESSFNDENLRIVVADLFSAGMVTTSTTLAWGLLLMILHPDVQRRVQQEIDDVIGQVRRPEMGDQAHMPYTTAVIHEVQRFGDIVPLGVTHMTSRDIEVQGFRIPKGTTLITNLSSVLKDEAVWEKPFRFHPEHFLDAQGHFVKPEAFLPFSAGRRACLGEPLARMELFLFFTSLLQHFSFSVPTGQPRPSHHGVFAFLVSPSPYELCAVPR

ERα LBD = target: T9, ERα LBD (Homo sapiens, UniProt P03372); experiment: LanthaScreen TR-FRET coactivator; assay type: biochemical
T9 sequence (P03372 311-547 limits assumed): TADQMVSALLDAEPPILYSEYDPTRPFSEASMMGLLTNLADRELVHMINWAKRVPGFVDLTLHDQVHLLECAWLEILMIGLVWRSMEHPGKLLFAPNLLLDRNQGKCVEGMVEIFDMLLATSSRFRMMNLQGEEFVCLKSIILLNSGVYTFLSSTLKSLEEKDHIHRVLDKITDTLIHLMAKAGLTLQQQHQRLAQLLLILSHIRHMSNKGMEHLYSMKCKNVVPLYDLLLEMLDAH

[10] = target: T10, full length and native ERα (Homo sapiens, UniProt P03372); experiment: Cell-based transcriptional assay, ERα antagonist mode; conditions: concentrations up to 10 μM
T10 sequence (P03372 1-595): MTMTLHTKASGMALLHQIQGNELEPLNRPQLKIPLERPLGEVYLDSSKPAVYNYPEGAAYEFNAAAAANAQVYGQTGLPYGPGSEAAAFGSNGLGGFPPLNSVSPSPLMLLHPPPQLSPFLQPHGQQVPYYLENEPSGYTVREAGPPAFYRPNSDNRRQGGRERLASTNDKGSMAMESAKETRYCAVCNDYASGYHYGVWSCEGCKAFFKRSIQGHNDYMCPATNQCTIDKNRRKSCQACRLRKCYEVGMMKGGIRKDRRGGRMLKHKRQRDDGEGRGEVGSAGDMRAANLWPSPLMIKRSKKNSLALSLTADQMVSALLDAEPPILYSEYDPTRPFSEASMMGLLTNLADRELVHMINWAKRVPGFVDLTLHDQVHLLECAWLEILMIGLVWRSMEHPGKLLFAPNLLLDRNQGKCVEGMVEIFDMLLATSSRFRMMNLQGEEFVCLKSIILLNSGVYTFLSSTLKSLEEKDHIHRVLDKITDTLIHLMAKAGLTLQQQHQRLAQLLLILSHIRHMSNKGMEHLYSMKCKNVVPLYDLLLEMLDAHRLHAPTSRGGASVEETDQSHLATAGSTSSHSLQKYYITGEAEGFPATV

`OC[C@H]1CC[C@H](c2ccc(O)cc2)CC1` [ISP358–2] was tested, and the “agonist activity at TRβ” value [1] was “not an agonist”, the “agonist activity at VDR” value [2] was “not an agonist” and the “agonist activity at GR” value [3] was “not an agonist”. The “agonist activity at AR” value [4] was “not an agonist”, the “agonist activity at MR” value [5] was “not an agonist” and the “inhibition of CYP1A2” value (CYP1A2) was “no inhibition”. The “time with moved object vs chance, object placement” value (from here on “time with moved object vs chance”) (ovariectomized mice [6]; IP injection, 0.5 mg/kg) was “spent significantly more time than chance with the moved object”, the “time with moved object vs chance” value (ovariectomized mice [6]; IP injection, 5 mg/kg) was “spent significantly more time than chance with the moved object” and the “time with moved object vs chance” value (ovariectomized mice [6]; dorsal hippocampal infusion, 10 pg/hemisphere) was “did not spend significantly more time than chance with the moved object”. For the same compound, the “time with moved object vs chance” value (ovariectomized mice [6]; dorsal hippocampal infusion, 100 pg/hemisphere) was “spent significantly more time than chance with the moved object”, the “time with moved object vs chance” value (ovariectomized mice [6]; dorsal hippocampal infusion, 1 ng/hemisphere) was “spent significantly more time than chance with the moved object” and the “preference for moved object vs chance, object placement” value (ovariectomized mice [6]; oral gavage, 0.5 mg/kg) was “exhibited a significant preference for the moved object relative to chance”. The “preference for moved object vs chance, object placement” value (ovariectomized mice [6]; oral gavage, 5 mg/kg) was “exhibited a significant preference for the moved object relative to chance”, the “spatial memory consolidation after long-term estrogen deprivation, object placement” value (ovariectomized mice [6]; oral gavage, same doses, 4 months after ovariectomy, preliminary) was “did not enhance spatial memory consolidation” and the “agonist activity at PPARδ” value [7] was “not an agonist”. For the same compound, the “preference for novel object vs chance, object recognition” value (ovariectomized mice [8]; 0.5 mg/kg, tested 48 h after training) was “exhibited a significant preference for the novel object relative to chance”, the “preference for novel object vs chance, object recognition” value (ovariectomized mice [8]; 5 mg/kg, tested 48 h after training) was “somewhat of a trend for the 5 mg/kg ISP358–2 to prefer the novel object” and the “time with novel object vs chance, object recognition” value (shortened to “time with novel object vs chance”) (ovariectomized mice [8]; dorsal hippocampal infusion, 10 pg/hemisphere, tested 48 h after training) was “Neither the vehicle nor 10 pg of ISP358–2 groups showed a preference for the novel object”. For the same compound, the “time with novel object vs chance” value (ovariectomized mice [8]; dorsal hippocampal infusion, 100 pg/hemisphere, tested 48 h after training) was “spent significantly more time than chance with the novel object”, the “time with novel object vs chance” value (ovariectomized mice [8]; dorsal hippocampal infusion, 1 ng/hemisphere, tested 48 h after training) was “spent significantly more time than chance with the novel object” and the “time with novel object vs chance” value (ovariectomized mice [8]; oral gavage, 0.5 mg/kg) was “spent significantly more time with the novel object relative to chance”. The “time with novel object vs chance” value (ovariectomized mice [8]; oral gavage, 5 mg/kg) was “spent significantly more time with the novel object relative to chance”, the “agonist activity at PR” value [9] was “not an agonist” and the “inhibition of CYP2D6” value (CYP2D6) was “no inhibition”. For the same compound, the EC50 (ERα LBD) was 2940 nM and the ERα antagonist activity [10] was “No measurable antagonist activity”.
